Source: ChEMBL document CHEMBL1201862, “PubChem BioAssay data set” (2004)
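Growth conditions: 96-well plates. Treatment: test compound, 48 hours, 5 concentrations. Analysis: linear interpolation between bracketing concentrations; unreached endpoints set to highest concentration. GI50 is the concentration that inhibits growth by half.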 Activity calls are given as the source filed them. Cut-off read from the data, not from the text of the source: active = GI50 up to about 1.1 µM and inactive = higher.

Columns and labels:
Assay in all cases: DTP human tumour cell line panel, 48 h
COLO 205 = system: COLO 205
HCT-15 = system: HCT-15
LOX IMVI = system: LOX IMVI
CAKI-1 = system: CAKI-1
UACC-257 = system: UACC-257
HCC 2998 = system: HCC 2998
HT-29 = system: HT-29
MDA-MB-231 = system: MDA-MB-231
U-251 = system: U-251
SF-539 = system: SF-539
KM12 = system: KM12
OVCAR-4 = system: OVCAR-4
HOP-62 = system: HOP-62
A549 = system: A549
ACHN = system: ACHN
Malme-3M = system: Malme-3M
SNB-75 = system: SNB-75
SNB-19 = system: SNB-19
OVCAR-8 = system: OVCAR-8
SK-OV-3 = system: SK-OV-3
SW-620 = system: SW-620
HL-60 = system: HL-60
MDA-MB-435 = system: MDA-MB-435
UACC-62 = system: UACC-62
OVCAR-3 = system: OVCAR-3
MOLT-4 = system: MOLT-4
IGROV-1 = system: IGROV-1
OVCAR-5 = system: OVCAR-5
K562 = system: K562
NCI/ADR-RES = system: NCI/ADR-RES
RXF 393 = system: RXF 393
TK-10 = system: TK-10
PC-3 = system: PC-3
SK-MEL-5 = system: SK-MEL-5
SK-MEL-2 = system: SK-MEL-2
T47D = system: T47D
UO-31 = system: UO-31
CCRF-CEM = system: CCRF-CEM
HCT-116 = system: HCT-116
DU-145 = system: DU-145
SK-MEL-28 = system: SK-MEL-28
MCF7 = system: MCF7
EKVX = system: EKVX
NCI-H460 = system: NCI-H460
SF-295 = system: SF-295
786-0 = system: 786-0
A498 = system: A498
RPMI-8226 = system: RPMI-8226
SF-268 = system: SF-268
SN12C = system: SN12C
HOP-92 = system: HOP-92
BT-549 = system: BT-549
MDA-N = system: MDA-N
M14 = system: M14
NCI-H522 = system: NCI-H522
Hs-578T = system: Hs-578T
NCI-H226 = system: NCI-H226
NCI-H23 = system: NCI-H23

SMILES: COc1cc(/C=C2\CC3C4CC[C@H]5C[C@@H](O)CC[C@]5(C)C4CC[C@]3(C)\C2=N\O)cc(OC)c1OC (stereo partly drawn)
- GI50 (COLO 205): 5.94 µM (inactive)
- GI50 (HCT-15): 9.48 µM
- GI50 (LOX IMVI): 11.5 µM (inactive)
- GI50 (CAKI-1): 4.09 µM (inactive)
- GI50 (UACC-257): 10.7 µM (inactive)
- GI50 (HCC 2998): 10.1 µM (inactive)
- GI50 (HT-29): 7.36 µM (inactive)
- GI50 (MDA-MB-231): 14.3 µM (inactive)
- GI50 (U-251): 10.6 µM (inactive)
- GI50 (SF-539): 10.8 µM (inactive)
- GI50 (KM12): 6.9 µM (inactive)
- GI50 (OVCAR-4): 5.74 µM (inactive)
- GI50 (HOP-62): 12 µM (inactive)
- GI50 (A549): 7 µM (inactive)
- GI50 (ACHN): 6.59 µM (inactive)
- GI50 (Malme-3M): 16.7 µM (inactive)
- GI50 (SNB-75): 13.4 µM (inactive)
- GI50 (SNB-19): 29.7 µM (inactive)
- GI50 (OVCAR-8): 17.3 µM (inactive)
- GI50 (SK-OV-3): 19.2 µM (inactive)
- GI50 (SW-620): 18.2 µM (inactive)
- GI50 (HL-60): 3.46 µM (inactive)
- GI50 (MDA-MB-435): 7.41 µM (inactive)
- GI50 (UACC-62): 14.3 µM (inactive)
- GI50 (OVCAR-3): 3.27 µM (inactive)
- GI50 (MOLT-4): 5.33 µM (inactive)
- GI50 (IGROV-1): 23 µM (inactive)
- GI50 (OVCAR-5): 22.1 µM (inactive)
- GI50 (K562): 4.66 µM (inactive)
- GI50 (NCI/ADR-RES): 12.9 µM (inactive)
- GI50 (RXF 393): 7.74 µM (inactive)
- GI50 (TK-10): 16.8 µM (inactive)
- GI50 (PC-3): 5.43 µM (inactive)
- GI50 (SK-MEL-5): 5.21 µM (inactive)
- GI50 (SK-MEL-2): 11.7 µM (inactive)
- GI50 (T47D): 4.73 µM (inactive)
- GI50 (UO-31): 3.44 µM (inactive)
- GI50 (CCRF-CEM): 6.47 µM (inactive)
- GI50 (HCT-116): 6.19 µM (inactive)
- GI50 (DU-145): 13.1 µM (inactive)
- GI50 (SK-MEL-28): 14.7 µM (inactive)
- GI50 (MCF7): 4.05 µM (inactive)
- GI50 (EKVX): 8.81 µM (inactive)
- GI50 (NCI-H460): 8.05 µM (inactive)
- GI50 (SF-295): 3.97 µM (inactive)
- GI50 (786-0): 7.96 µM (inactive)
- GI50 (A498): 11.2 µM (inactive)
- GI50 (RPMI-8226): 4.23 µM (inactive)
- GI50 (SF-268): 24 µM (inactive)
- GI50 (SN12C): 13.7 µM (inactive)
- GI50 (HOP-92): 15.2 µM (inactive)
- GI50 (BT-549): 14.9 µM (inactive)
- GI50 (MDA-N): 14.8 µM (inactive)
- GI50 (M14): 14.4 µM (inactive)
- GI50 (NCI-H522): 13.1 µM (inactive)
- GI50 (Hs-578T): 8.3 µM (inactive)
- GI50 (NCI-H226): 10.8 µM (inactive)
- GI50 (NCI-H23): 15.6 µM (inactive)
